23 molecules from patent US9428503B2, “Imidazo[4,5-c]quinolin-2-one compounds and their use in treating Cancer” (AstraZeneca AB, priority 2014, dated 2016) can be followed below.

A word on the IC50: it is the concentration that inhibits the measured activity by half.

Each structure is given as a SMILES string. Several values for one entry are separate records, joined by “and”; a condition that tells them apart may be missing. Identical values can stand only once. Counter-ions that a name gives are not always drawn.

Format in all cases: cell-based
One test addresses ATR kinase (Homo sapiens (Human), UniProt Q13535). The test can be described thus: Assay b) ATR cellular potency assay (pChk1 Ser345 in HT29 cells treated with 4NQO). The note with it: HT29 cells, pChk1 Ser345 after 4NQO; geometric mean where repeated; read-out: Assay b) ATR Cell IC50.
The next test deals with PI3K-α (Homo sapiens, UniProt P42336). The test can be described thus: Assay c) PI3K cellular potency assay (phospho-Akt T308 ELISA in BT474 cells). The note with it: BT474 cells, phospho-Akt T308, 2 h; geometric mean where repeated; read-out: Assay c) PI3Kα Cell IC50. For orientation: In an ELISA, binding on a coated surface is turned into a signal by an enzyme label.
The target in a further test is mTOR (Homo sapiens (Human), UniProt P42345). The test can be described thus: Assay d) mTOR cellular potency assay (phospho-AKT Ser473 in MDA-MB-468 cells). The note with it: MDA-MB-468 cells, phospho-AKT Ser473, 2 h; geometric mean where repeated; read-out: Assay d) mTOR Cell IC50.
The target in another test is ATM kinase (Homo sapiens (Human), UniProt Q13315). The experiment in a line: Assay a) ATM cellular potency assay (pATM Ser1981 in X-ray irradiated HT29 cells). The note with it: HT29 cells, pATM Ser1981 after X-ray irradiation; geometric mean where repeated; read-out: Assay a) ATM Cell IC50.
Sequence of ATM kinase (Q13315 whole entry): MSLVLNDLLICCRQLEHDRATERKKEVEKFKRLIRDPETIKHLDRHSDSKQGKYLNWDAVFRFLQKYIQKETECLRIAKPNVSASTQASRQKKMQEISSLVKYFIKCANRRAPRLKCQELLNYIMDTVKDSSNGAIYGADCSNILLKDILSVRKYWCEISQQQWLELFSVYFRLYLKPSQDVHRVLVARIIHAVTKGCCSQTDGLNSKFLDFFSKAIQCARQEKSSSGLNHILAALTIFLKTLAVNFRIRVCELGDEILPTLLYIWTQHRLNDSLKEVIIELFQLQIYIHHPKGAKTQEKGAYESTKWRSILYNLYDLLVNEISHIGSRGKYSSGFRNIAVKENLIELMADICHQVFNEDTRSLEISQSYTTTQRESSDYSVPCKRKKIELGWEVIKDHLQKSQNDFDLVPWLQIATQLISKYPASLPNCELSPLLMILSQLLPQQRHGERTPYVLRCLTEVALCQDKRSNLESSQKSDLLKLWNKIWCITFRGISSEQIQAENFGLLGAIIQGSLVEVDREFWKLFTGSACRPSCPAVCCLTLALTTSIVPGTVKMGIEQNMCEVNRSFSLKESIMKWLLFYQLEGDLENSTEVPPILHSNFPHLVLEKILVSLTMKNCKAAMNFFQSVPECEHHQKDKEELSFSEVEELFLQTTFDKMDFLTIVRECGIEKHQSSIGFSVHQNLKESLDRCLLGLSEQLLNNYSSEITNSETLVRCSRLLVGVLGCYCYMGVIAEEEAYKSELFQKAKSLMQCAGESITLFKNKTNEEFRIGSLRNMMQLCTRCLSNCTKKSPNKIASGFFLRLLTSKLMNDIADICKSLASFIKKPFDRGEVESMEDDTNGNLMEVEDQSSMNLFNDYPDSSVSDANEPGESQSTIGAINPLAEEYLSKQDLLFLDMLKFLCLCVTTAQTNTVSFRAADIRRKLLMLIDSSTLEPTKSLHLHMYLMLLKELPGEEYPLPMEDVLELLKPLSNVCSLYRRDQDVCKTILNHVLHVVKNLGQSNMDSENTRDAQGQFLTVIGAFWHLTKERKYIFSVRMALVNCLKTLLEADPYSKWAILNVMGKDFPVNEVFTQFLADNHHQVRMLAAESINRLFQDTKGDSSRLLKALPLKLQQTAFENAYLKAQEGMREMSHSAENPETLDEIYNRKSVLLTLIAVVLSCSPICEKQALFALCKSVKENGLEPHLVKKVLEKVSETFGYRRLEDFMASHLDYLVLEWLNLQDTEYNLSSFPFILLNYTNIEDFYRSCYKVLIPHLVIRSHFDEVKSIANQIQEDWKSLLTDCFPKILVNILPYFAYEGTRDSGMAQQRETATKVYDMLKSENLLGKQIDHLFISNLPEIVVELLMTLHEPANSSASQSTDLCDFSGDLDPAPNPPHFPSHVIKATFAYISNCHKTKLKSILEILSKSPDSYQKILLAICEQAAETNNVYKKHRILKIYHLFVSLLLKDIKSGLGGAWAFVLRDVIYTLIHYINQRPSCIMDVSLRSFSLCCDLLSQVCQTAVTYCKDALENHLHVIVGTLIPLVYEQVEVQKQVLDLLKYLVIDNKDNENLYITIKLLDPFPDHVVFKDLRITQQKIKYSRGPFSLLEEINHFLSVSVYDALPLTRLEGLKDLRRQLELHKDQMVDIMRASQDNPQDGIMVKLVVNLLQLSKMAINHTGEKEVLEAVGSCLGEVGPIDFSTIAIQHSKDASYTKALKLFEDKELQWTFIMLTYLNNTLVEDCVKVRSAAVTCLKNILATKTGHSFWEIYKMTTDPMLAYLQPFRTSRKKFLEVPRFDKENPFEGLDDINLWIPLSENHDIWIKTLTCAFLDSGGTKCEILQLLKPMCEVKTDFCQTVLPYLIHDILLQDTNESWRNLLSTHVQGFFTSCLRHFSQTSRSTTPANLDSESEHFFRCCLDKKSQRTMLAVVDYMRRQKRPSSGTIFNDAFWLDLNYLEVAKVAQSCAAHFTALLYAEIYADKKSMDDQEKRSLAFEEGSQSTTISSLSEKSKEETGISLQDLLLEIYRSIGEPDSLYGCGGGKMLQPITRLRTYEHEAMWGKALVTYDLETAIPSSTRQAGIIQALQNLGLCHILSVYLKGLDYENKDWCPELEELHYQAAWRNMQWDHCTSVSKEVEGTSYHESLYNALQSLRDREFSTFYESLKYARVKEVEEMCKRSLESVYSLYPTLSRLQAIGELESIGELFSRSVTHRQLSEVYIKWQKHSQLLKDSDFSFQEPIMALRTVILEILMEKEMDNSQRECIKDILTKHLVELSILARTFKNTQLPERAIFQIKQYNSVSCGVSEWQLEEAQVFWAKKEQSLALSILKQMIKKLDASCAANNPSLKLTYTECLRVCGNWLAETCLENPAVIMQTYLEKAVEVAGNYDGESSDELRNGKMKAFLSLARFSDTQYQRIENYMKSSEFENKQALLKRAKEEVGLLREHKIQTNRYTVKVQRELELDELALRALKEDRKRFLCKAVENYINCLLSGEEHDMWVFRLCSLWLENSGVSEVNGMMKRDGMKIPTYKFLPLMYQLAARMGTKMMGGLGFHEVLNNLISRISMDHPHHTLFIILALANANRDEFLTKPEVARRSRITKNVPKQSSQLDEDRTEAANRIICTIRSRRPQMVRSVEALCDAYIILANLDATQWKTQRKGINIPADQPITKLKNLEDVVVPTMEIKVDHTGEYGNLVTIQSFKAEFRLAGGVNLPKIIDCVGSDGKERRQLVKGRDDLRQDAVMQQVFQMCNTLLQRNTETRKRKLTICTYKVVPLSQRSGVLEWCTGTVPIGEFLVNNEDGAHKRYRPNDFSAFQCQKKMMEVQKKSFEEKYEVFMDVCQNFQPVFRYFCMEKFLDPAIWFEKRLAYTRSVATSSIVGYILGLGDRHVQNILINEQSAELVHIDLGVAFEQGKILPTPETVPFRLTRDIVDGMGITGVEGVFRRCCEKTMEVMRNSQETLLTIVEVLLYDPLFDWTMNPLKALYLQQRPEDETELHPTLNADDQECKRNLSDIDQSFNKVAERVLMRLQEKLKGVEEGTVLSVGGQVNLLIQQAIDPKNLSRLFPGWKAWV

Sequence of PI3K-α (P42336 whole entry, looked up): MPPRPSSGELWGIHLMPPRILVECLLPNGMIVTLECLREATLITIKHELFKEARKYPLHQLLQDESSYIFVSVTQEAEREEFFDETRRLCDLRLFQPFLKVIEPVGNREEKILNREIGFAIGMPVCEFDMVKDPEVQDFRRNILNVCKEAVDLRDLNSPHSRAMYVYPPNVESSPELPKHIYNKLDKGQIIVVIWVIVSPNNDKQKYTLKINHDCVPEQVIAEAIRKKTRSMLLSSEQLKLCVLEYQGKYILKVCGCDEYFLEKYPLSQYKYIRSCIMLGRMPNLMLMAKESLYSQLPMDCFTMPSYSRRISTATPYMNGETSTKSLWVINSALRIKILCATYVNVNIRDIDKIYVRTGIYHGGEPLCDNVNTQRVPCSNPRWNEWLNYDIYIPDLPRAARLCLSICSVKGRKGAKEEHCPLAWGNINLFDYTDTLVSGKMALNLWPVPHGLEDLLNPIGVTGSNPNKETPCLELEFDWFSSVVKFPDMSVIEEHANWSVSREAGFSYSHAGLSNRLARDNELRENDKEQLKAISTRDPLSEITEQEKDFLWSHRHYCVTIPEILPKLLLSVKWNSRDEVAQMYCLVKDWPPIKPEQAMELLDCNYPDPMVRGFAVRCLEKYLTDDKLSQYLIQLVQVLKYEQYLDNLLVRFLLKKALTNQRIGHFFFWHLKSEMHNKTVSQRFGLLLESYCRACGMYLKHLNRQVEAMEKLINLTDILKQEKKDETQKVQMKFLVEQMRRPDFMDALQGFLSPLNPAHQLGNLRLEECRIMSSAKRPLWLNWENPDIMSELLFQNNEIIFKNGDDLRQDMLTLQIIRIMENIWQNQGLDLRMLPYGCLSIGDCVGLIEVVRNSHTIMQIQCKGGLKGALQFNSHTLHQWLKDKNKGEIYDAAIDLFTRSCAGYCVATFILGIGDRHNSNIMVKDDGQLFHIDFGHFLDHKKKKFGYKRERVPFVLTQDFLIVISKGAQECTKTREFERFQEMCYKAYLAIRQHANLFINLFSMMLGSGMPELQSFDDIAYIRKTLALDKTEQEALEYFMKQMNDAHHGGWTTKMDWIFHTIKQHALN

`Cn1c(=O)n(C2CCCOC2)c2c3cc(-c4ccc(OCCCN5CCC5)nc4)ccc3ncc21` (stereo in doubt) [Example 60, 8-[6-[3-(azetidin-1-yl)propoxy]-3-pyridyl]-3-methyl-1-[(3S)-tetrahydropyran-3-yl]imidazo[4,5-c]quinolin-2-one]: the IC50 is > 24 µM on ATR kinase, 0.499 µM on PI3K-α, 1.36 µM at mTOR and 0.000765 µM on ATM kinase.
Taken in the same sequence, the figures for `CO[C@H]1C[C@@H](n2c(=O)n(C)c3cnc4ccc(-c5ccc(OCCCN(C)C)nc5)cc4c32)C1` [Example 2, 8-[6-(3-Dimethylaminopropoxy)pyridin-3-yl]-1-(cis-3-methoxycyclobutyl)-3-methylimidazo[4,5-c]quinolin-2-one] were > 29 µM, 1.77 µM, 1.17 µM and 0.000249 µM.
Taken in the same sequence, the figures for `CN(C)CCCOc1ccc(-c2cc3c(cc2F)ncc2c3n(C3(C)CCOCC3)c(=O)n2C)cn1` [Example 3, 8-[6-(3-Dimethylaminopropoxy)pyridin-3-yl]-7-fluoro-3-methyl-1-(4-methyloxan-4-yl)imidazo[5,4-c]quinolin-2-one] were > 30 µM, 22.4 µM, 4.93 µM and 0.00203 µM.
For `CO[C@H]1C[C@@H](n2c(=O)n(C)c3cnc4cc(F)c(-c5ccc(OCCCN(C)C)nc5)cc4c32)C1` [Example 6, 8-[6-(3-dimethylaminopropoxy)pyridin-3-yl]-7-fluoro-1-(cis-3-methoxycyclobutyl)-3-methylimidazo[4,5-c]quinolin-2-one], the IC50 at ATR kinase was > 30 µM; on PI3K-α, > 30 µM; on mTOR it was > 16.9 µM; at ATM kinase, 0.00105 µM.
In the case of `CN(C)CCCOc1ccc(-c2ccc3ncc4c(c3c2)n(C2(C)CCOCC2)c(=O)n4C)cn1` [Example 7, 8-[6-(3-dimethylaminopropoxy)pyridin-3-yl]-3-methyl-1-(4-methyloxan-4-yl)imidazo[5,4-c]quinolin-2-one], the IC50 on ATR kinase is 10.8 µM; on PI3K-α, 0.541 µM; on mTOR it was 0.266 µM; at ATM kinase it was 0.00096 µM.
Regarding `CN(C)CCCOc1ccc(-c2cc3c(cc2F)ncc2c3n(C3CCOCC3)c(=O)n2C)cn1` [Example 8, 8-[6-(3-dimethylaminopropoxy)pyridin-3-yl]-7-fluoro-3-methyl-1-(oxan-4-yl)imidazo[5,4-c]quinolin-2-one], the IC50 is > 30 µM on ATR kinase, 18.1 µM on PI3K-α, 14 µM at mTOR and 0.000782 µM on ATM kinase.
In the same order, the values of `CN(C)CCCOc1ccc(-c2cc3c(cc2F)ncc2c3n(C3COC3)c(=O)n2C)cn1` [Example 9, 8-[6-(3-dimethylaminopropoxy)pyridin-3-yl]-7-fluoro-3-methyl-1-(oxetan-3-yl)imidazo[5,4-c]quinolin-2-one] are > 30 µM, > 29.1 µM, > 21.3 µM and 0.0038 µM.
`CO[C@H]1C[C@@H](n2c(=O)[nH]c3cnc4ccc(-c5ccc(OCCCN(C)C)nc5)cc4c32)C1` [Example 12, 8-[6-(3-dimethylaminopropoxy)pyridin-3-yl]-1-(cis-3-methoxycyclobutyl)-3H-imidazo[4,5-c]quinolin-2-one]: the IC50 on ATR kinase is > 25.2 µM; on PI3K-α, 0.769 µM; at mTOR, 0.54 µM; at ATM kinase, 0.00103 µM.
Regarding `CN(C)CCCOc1ccc(-c2ccc3ncc4[nH]c(=O)n(C5CCOCC5)c4c3c2)cn1` [Example 13, 8-[6-(3-dimethylaminopropoxy)pyridin-3-yl]-1-(oxan-4-yl)-3H-imidazo[4,5-c]quinolin-2-one], the IC50 on ATR kinase is > 30 µM; on PI3K-α, 1.52 µM; at mTOR, 0.248 µM; at ATM kinase, 0.00322 µM.
Take `Cn1c(=O)n([C@H]2C[C@@H](O)C2)c2c3cc(-c4ccc(OCCCN5CCC5)nc4)ccc3ncc21` [Example 14, 8-[6-[3-(azetidin-1-yl)propoxy]pyridin-3-yl]-1-(cis-3-hydroxycyclobutyl)-3-methylimidazo[4,5-c]quinolin-2-one]: the IC50 was > 30 µM on ATR kinase, 0.616 µM on PI3K-α, 1.04 µM at mTOR and 0.00105 µM on ATM kinase.
`Cn1c(=O)n([C@H]2C[C@@H](O)C2)c2c3cc(-c4ccc(OCCCN5CCCC5)nc4)ccc3ncc21` [Example 15, 1-(cis-3-hydroxycyclobutyl)-3-methyl-8-[6-(3-pyrrolidin-1-ylpropoxy)pyridin-3-yl]imidazo[4,5-c]quinolin-2-one]: the IC50 was > 30 µM at ATR kinase, 2.39 µM at PI3K-α, 2.58 µM on mTOR and 0.000447 µM on ATM kinase.
As to `CO[C@H]1C[C@@H](n2c(=O)n(C)c3cnc4cc(F)c(-c5ccc(OCCCN(C)C)nc5F)cc4c32)C1` [Example 19, 8-[6-(3-dimethylaminopropoxy)-2-fluoropyridin-3-yl]-7-fluoro-1-(cis-3-methoxycyclobutyl)-3-methylimidazo[4,5-c]quinolin-2-one], the IC50 on ATR kinase was > 30 µM; at PI3K-α it was > 28 µM; at mTOR, 13.7 µM; on ATM kinase it was 0.00262 µM.
Taken in the same sequence, the figures for `CN(C)CCCOc1ccc(-c2ccc3ncc4c(c3c2)n([C@H]2CCCOC2)c(=O)n4C)c(F)n1` [Example 20, 8-[6-(3-dimethylaminopropoxy)-2-fluoropyridin-3-yl]-3-methyl-1-[(3S)-oxan-3-yl]imidazo[5,4-c]quinolin-2-one] were > 30 µM, 1.03 µM, 0.529 µM and 0.000365 µM.
`CO[C@H]1C[C@@H](n2c(=O)n(C)c3cnc4ccc(-c5ccc(OCCCN6CCCC6)nc5)cc4c32)C1` [Example 28, 1-(cis-3-methoxycyclobutyl)-3-methyl-8-[6-(3-pyrroldin-1-ylpropoxy)pyridin-3-yl]imidazo[4,5-c]quinolin-2-one]: the IC50 was > 22.8 µM on ATR kinase, 2.77 µM at mTOR and 0.000176 µM on ATM kinase.
Take `CN(C)CCCOc1ccc(-c2ccc3ncc4c(c3c2)n(C2CCC2)c(=O)n4C)cn1` [Example 46, 1-cyclobutyl-8-[6-[3-(dimethylamino)propoxy]-3-pyridyl]-3-methyl-imidazo[4,5-c]quinolin-2-one methanesulfonic acid salt]: the IC50 is > 26 µM at ATR kinase, 0.794 µM at PI3K-α and 0.00315 µM at ATM kinase.
As for `CN(C)CCCOc1ccc(-c2ccc3ncc4c(c3c2)n([C@H]2CCOC2)c(=O)n4C)c(F)n1` [Example 49, 8-[6-[3-(dimethylamino)propoxy]-2-fluoro-3-pyridyl]-3-methyl-1-[(3S)-tetrahydrofuran-3-yl]imidazo[4,5-c]quinolin-2-one methanesulfonic acid salt], the IC50 is > 30 µM on ATR kinase, 3.76 µM on mTOR and 0.00134 µM at ATM kinase.
In the same order, the values of `CN(C)CCCOc1ccc(-c2ccc3ncc4c(c3c2)n([C@@H]2CCOC2)c(=O)n4C)c(F)n1` [Example 50] are > 30 µM, 4.48 µM and 0.00144 µM.
Turning to `Cn1c(=O)n([C@@H]2CCOC2)c2c3cc(-c4ccc(OCCCN5CCCCC5)nc4)ccc3ncc21` [Example 54, 3-methyl-8-[6-[3-(1-piperidyl)propoxy]-3-pyridyl]-1-[(3R)-tetrahydrofuran-3-yl]imidazo[4,5-c]quinolin-2-one methane sulfonic acid salt], the IC50 is > 27.1 µM on ATR kinase; 0.0011 µM and 0.000715 µM at ATM kinase.
For the molecule `Cn1c(=O)n([C@H]2CCOC2)c2c3cc(-c4ccc(OCCCN5CCCCC5)nc4)ccc3ncc21` [Example 55, 3-methyl-8-[6-[3-(1-piperidyl)propoxy]-3-pyridyl]-1-[(3S)-tetrahydrofuran-3-yl]imidazo[4,5-c]quinolin-2-one], the results for the IC50 on ATR kinase and on ATM kinase were > 16.1 µM and 0.000493 µM, respectively.
For `Cn1c(=O)n([C@H]2CCCOC2)c2c3cc(-c4ccc(OCCCN5CCCC5)nc4F)ccc3ncc21` [Example 61, 8-[2-Fluoro-6-(3-pyrrolidin-1-ylpropoxy)-3-pyridyl]-3-methyl-1-[(3S)-tetrahydropyran-3-yl]imidazo[4,5-c]quinolin-2-one], the IC50 was > 30 µM at ATR kinase, > 16.2 µM at PI3K-α and 0.000554 µM at ATM kinase.
Consider `CO[C@@H]1CC[C@@H](n2c(=O)n(C)c3cnc4cc(F)c(-c5ccc(OCCCN(C)C)nc5)cc4c32)C1` [Example 62, 8-[6-[3-(Dimethylamino)propoxy]-3-pyridyl]-7-fluoro-1-[(1R,3R)-3-methoxycyclopentyl]-3-methyl-imidazo[4,5-c]quinolin-2-one], for which the values for the IC50 on mTOR and at ATM kinase were > 30 µM and 0.000507 µM, respectively.
As to `CO[C@@H]1CC[C@@H](n2c(=O)n(C)c3cnc4ccc(-c5ccc(OCCCN6CCCC6)nc5)cc4c32)C1` [Example 67, 1-[(1R,3R)-3-methoxycyclopentyl]-3-methyl-8-[6-(3-pyrrolidin-1-ylpropoxy)-3-pyridyl]imidazo[4,5-c]quinolin-2-one], the IC50 at ATR kinase was 15.2 µM; on PI3K-α, > 2.85 µM; on mTOR, 0.996 µM.
For `CO[C@H]1CC[C@H](n2c(=O)n(C)c3cnc4ccc(-c5ccc(OCCCN(C)C)nc5F)cc4c32)C1` [Example 69, 8-[6-[3-(dimethylamino)propoxy]-2-fluoro-3-pyridyl]-1-[(1S,3S)-3-methoxycyclopentyl]-3-methyl-imidazo[4,5-c]quinolin-2-one], the IC50 was > 30 µM on ATR kinase, > 2.77 µM on PI3K-α and 0.000324 µM at ATM kinase.
